# Measured values published in patent publication US20240262832A1, “SMALL MOLECULE MODULATORS OF GLUCOCEREBROSIDASE ACTIVITY AND USES THEREOF” (Vanqua Bio, Inc., priority 2021, published 2024).
# Target: T1, GCase (Homo sapiens, UniProt P04062)
# T1 construct: endogenous in cells; host or cells: HeLa cells
# T1 sequence (P04062 40-536): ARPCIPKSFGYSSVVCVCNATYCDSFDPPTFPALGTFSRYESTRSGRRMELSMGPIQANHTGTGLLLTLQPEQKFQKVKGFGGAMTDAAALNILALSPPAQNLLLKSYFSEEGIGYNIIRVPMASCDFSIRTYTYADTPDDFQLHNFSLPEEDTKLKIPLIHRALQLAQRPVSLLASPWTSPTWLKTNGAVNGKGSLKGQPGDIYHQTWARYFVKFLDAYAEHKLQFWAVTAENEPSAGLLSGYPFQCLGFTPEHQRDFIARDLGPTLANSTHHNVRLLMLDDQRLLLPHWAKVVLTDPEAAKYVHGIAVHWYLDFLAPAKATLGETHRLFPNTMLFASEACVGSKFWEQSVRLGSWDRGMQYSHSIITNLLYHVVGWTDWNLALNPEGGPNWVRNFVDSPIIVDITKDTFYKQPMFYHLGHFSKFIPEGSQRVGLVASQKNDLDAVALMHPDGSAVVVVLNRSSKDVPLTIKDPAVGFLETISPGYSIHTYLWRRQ
# Test: activation of GCase in a live cell PFB assay in HELA cells
# Type: cell-based
row,EC50 [µM],SMILES
1,10 to 50,"O=C(c1cnc2c(cnn2-c2ccccc2)n1)N1CCCC(COc2cccnc2C(F)(F)F)C1 (stereo not drawn) [Compound 103, (1-Phenyl-1H-pyrazolo[3,4-b]pyrazin-5-yl)(3-(((2-(trifluoromethyl)pyridin-3-yl)oxy)methyl)piperidin-1-yl)methanone]"
2,> 100,"Cn1c(-c2ccccc2)nc2nc(C(=O)N3C[C@@H]4[C@@H](COc5cccnc5C(F)(F)F)[C@@H]4C3)cnc21 [Compound 105, (1-methyl-2-phenyl-1H-imidazo[4,5-b]pyrazin-5-yl)((1R,5S,6r)-6-(((2-(trifluoromethyl)pyridin-3-yl)oxy)methyl)-3-azabicyclo[3.1.0]hexan-3-yl)methanone]"
3,50 to 100,"CC(CC1CCCN(c2cnc3cnn(CC(F)F)c3n2)C1)c1cccnc1C(F)(F)F (stereo not drawn) [Compound 108, 1-(2,2-Difluoroethyl)-6-(3-(2-(2-(trifluoromethyl)pyridin-3-yl)propyl)piperidin-1-yl)-1H-pyrazolo[3,4-b]pyrazine]"
4,10 to 50,"O=C(c1ccc2cc[nH]c2c1)N1C[C@@H]2[C@@H](COc3cccnc3C(F)(F)F)[C@@H]2C1 [Compound 109, 6-[(1R,5S,6R)-6-({[2-(Trifluoromethyl)pyridin-3-yl]oxy}methyl)-3-azabicyclo[3.1.0]hexane-3-carbonyl]-1H-indole]"
5,50 to 100,"CC(C)c1cc(C(=O)N2C[C@@H]3[C@@H](COc4cccnc4C(F)(F)F)[C@@H]3C2)[nH]n1 [Compound 110, (1R,5S,6R)-3-[3-(Propan-2-yl)-1H-pyrazole-5-carbonyl]-6-({[2-(trifluoromethyl)pyridin-3-yl]oxy}methyl)-3-azabicyclo[3.1.0]hexane]"
6,< 10,"CC(=O)N1CCC(n2ncc3ncc(N4CCCC(COc5ccccc5C(F)(F)F)C4)nc32)CC1 (stereo not drawn) [Compound 111, 1-(4-(6-(3-((2-(trifluoromethyl)phenoxy)methyl)piperidin-1-yl)-1H-pyrazolo[3,4-b]pyrazin-1-yl)piperidin-1-yl)ethan-1-one]"
7,< 10,"CC(=O)N1CCC(c2cncc(N3CCCC(COc4ccccc4C(F)(F)F)C3)n2)C(C)C1 (stereo not drawn) [Compound 112, 1-(3-methyl-4-(6-(3-((2-(trifluoromethyl)phenoxy)methyl)piperidin-1-yl)pyrazin-2-yl)piperidin-1-yl)ethan-1-one]"
8,< 10,"O=C(C1CC1)N1CCC(c2cncc(N3CCCC(COc4ccccc4C(F)(F)F)C3)n2)CC1 (stereo not drawn) [Compound 113, Cyclopropyl(4-(6-(3-((2-(trifluoromethyl)phenoxy)methyl)piperidin-1-yl)pyrazin-2-yl)piperidin-1-yl)methanone]"
9,< 10,"CC1C(COc2cccnc2C(F)(F)F)CCCN1c1cnc2cnn(CC(F)F)c2n1 (stereo not drawn) [Compound 116, 1-(2,2-Difluoroethyl)-6-(2-methyl-3-(((2-(trifluoromethyl)pyridin-3-yl)oxy)methyl)piperidin-1-yl)-1H-pyrazolo[3,4-b]pyrazine]"
10,< 10,"CC1CCC(COc2cccnc2C(F)(F)F)CN1c1cnc2cnn(C3COC3)c2n1 (stereo not drawn) [Compound 117, 6-(2-Methyl-5-(((2-(trifluoromethyl)pyridin-3-yl)oxy)methyl)piperidin-1-yl)-1-(oxetan-3-yl)-1H-pyrazolo[3,4-b]pyrazine]"
11,< 10,"CC1CCC(COc2cccnc2C(F)(F)F)CN1c1cnc2cnn(CC3COC3)c2n1 (stereo not drawn) [Compound 118, 6-(2-Methyl-5-(((2-(trifluoromethyl)pyridin-3-yl)oxy)methyl)piperidin-1-yl)-1-(oxetan-3-ylmethyl)-1H-pyrazolo[3,4-b]pyrazine]"
12,10 to 50,"FC(F)Cn1ncc2cnc(N3CCCC(COc4cccnc4C(F)(F)F)C3)nc21 (stereo not drawn) [Compound 119, 1-(2,2-difluoroethyl)-6-(3-(((2-(trifluoromethyl)pyridin-3-yl)oxy)methyl)piperidin-1-yl)-1H-pyrazolo[3,4-d]pyrimidine]"
13,50 to 100,"Fc1cnc(OC[C@@H]2[C@H]3CN(c4cnc5cnn(C6COC6)c5n4)C[C@@H]23)c(F)c1 [Compound 120, 6-((1R,5S,6r)-6-(((3,5-difluoropyridin-2-yl)oxy)methyl)-3-azabicyclo[3.1.0]hexan-3-yl)-1-(oxetan-3-yl)-1H-pyrazolo[3,4-b]pyrazine]"
14,10 to 50,"FC(F)(F)c1ncccc1OC[C@@H]1[C@H]2CN(c3nccc(-c4nncs4)n3)C[C@@H]12 [Compound 121, (1R,5S,6r)-3-(4-(1,3,4-Thiadiazol-2-yl)pyrimidin-2-yl)-6-(((2-(trifluoromethyl)pyridin-3-yl)oxy)methyl)-3-azabicyclo[3.1.0]hexane]"
15,< 10,"CC1CCC(COc2cccnc2C(F)(F)F)CN1c1cnc2cnn(CC(F)(F)F)c2n1 (stereo not drawn) [Compound 122, 6-(2-Methyl-5-(((2-(trifluoromethyl)pyridin-3-yl)oxy)methyl)piperidin-1-yl)-1-(2,2,2-trifluoroethyl)-1H-pyrazolo[3,4-b]pyrazine]"
16,< 10,"COCCn1ncc2ncc(N3CC(COc4cccnc4C(F)(F)F)CCC3C)nc21 (stereo not drawn) [Compound 123, 1-(2-Methoxyethyl)-6-(2-methyl-5-(((2-(trifluoromethyl)pyridin-3-yl)oxy)methyl)piperidin-1-yl)-1H-pyrazolo[3,4-b]pyrazine]"
17,10 to 50,Fc1cc(F)cc(OC[C@@H]2[C@H]3CN(c4cnc5cnn(C6COC6)c5n4)C[C@@H]23)c1 [Compound 124]

row,EC50 [µM],SMILES
1,< 10,"CC1CC(COc2cccnc2C(F)(F)F)CN(c2cnc3cnn(CC(F)(F)F)c3n2)C1 (stereo not drawn) [Compound 127, 6-(3-Methyl-5-(((2-(trifluoromethyl)pyridin-3-yl)oxy)methyl)piperidin-1-yl)-1-(2,2,2-trifluoroethyl)-1H-pyrazolo[3,4-b]pyrazine]"
2,10 to 50,"CC1CCC(COc2cccnc2C(F)(F)F)CN1C(=O)c1ccc2cc[nH]c2c1 (stereo not drawn) [Compound 128, (1H-Indol-6-yl)(2-methyl-5-(((2-(trifluoromethyl)pyridin-3-yl)oxy)methyl)piperidin-1-yl)methanone]"
3,10 to 50,Cc1ccccc1CCC(=O)N1CCCC(COc2ccccc2)C1 (stereo not drawn) [Compound 129]
4,< 10,CCCCCCC(C)C(=O)N1CCCC(COc2ccccc2)C1 (stereo not drawn) [Compound 132]
5,> 100,CC(CSC(F)(F)F)C(=O)N1CCCC(COc2ccccc2)C1 (stereo not drawn) [Compound 133]
6,10 to 50,COc1ccc2c(c1)CCCC2CC(=O)N1CCCC(COc2ccccc2)C1 (stereo not drawn) [Compound 135]
7,> 100,O=C(c1ncc(Cl)s1)N1CCCC(COc2ccccc2)C1 (stereo not drawn) [Compound 137]
8,10 to 50,CCc1nc2ccccc2n1CC(=O)N1CCCC(COc2ccccc2)C1 (stereo not drawn) [Compound 140]
9,10 to 50,COc1cccc(C(C(=O)N2CCCC(COc3ccccc3)C2)C(C)C)c1 (stereo not drawn) [Compound 141]
10,< 10,Cc1cnccc1-c1ccc(C(=O)N2CCCC(COc3ccccc3)C2)s1 (stereo not drawn) [Compound 142]
11,10 to 50,O=C(c1cnn(-c2ccc(Cl)cc2)n1)N1CCCC(COc2ccccc2)C1 (stereo not drawn) [Compound 147]
12,10 to 50,O=C(CCc1cccc(C(F)(F)F)c1)N1CCCC(COc2ccccc2)C1 (stereo not drawn) [Compound 150]
13,10 to 50,O=C(C1C[C@@H]2C[C@@H](C1)CC(F)(F)C2)N1CCCC(COc2ccccc2)C1 (stereo partly drawn) [Compound 151]
14,10 to 50,COc1ccc(C(F)(F)C(=O)N2CCCC(COc3ccccc3)C2)cc1 (stereo not drawn) [Compound 152]
15,10 to 50,COC(C(=O)N1CCCC(COc2ccccc2)C1)c1ccc(Cl)cc1 (stereo not drawn) [Compound 153]
16,10 to 50,COc1cc(C(=O)N2CCCC(COc3ccccc3)C2)c(Cl)cc1Cl (stereo not drawn) [Compound 155]
